The source of these data is patent publication US20220354805A1, “Cannabidiol (CBD) as Chemical for Treating Aging-related Degenerative Diseases and Promoting Health Aging” (Hemix Biotech Limited, priority 2021, published 2022).

The test system of experiment [1] is bone marrow stromal cells of LMNA^G609G/G609G mice. The experiment in a line: Crystal violet staining colony formation assay of mouse bone marrow stromal cells. It counts as in vivo. Conditions: mice treated with 50 mg/kg CBD, vs LMNA^G609G/G609G control mice and wildtype mice; 12 days of culture. Here is the method: In the step of isolating the mouse bone marrow stromal cells for measurement of the clonogenicity, mice were sacrificed and placed inside tissue culture hood. The femur was dissected out using sterile utensils. The mouse bone marrow stromal cells were flushed out of femur using a 29G needle with 1 mL of ice-cold phosphate buffered saline (PBS). The bone marrow stromal cells collected were centrifuged at 3000 rpm for 5 minutes at 4° C. The supernatant was removed, and the cell pellet was resuspended in Minimum Essential Medium Eagle—alpha modification (α-MEM) supplemented with 20% fetal bovine serum (FBS) and penicillin-streptomycin (100 units/mL). The medium was changed every 3 days. After 12 days of culture, crystal violet staining colony formation assay was carried out. The cells were washed twice with ice-cold PBS. The cells were fixed with ice-cold methanol for 10 minutes. Then the cells were stained with 0.5% crystal violet dissolved in 25% methanol for 10 minutes at room temperature. The crystal violet solution was then removed, and the cells were rinsed with double-distilled water (ddH2O) until the rinse became clear. The plates were dried off, and pictures were taken for analysis.

Experiment [2] has as its system liver of LMNA^G609G/G609G mice. The experiment in a line: Senescence-associated beta-galactosidase staining of mouse liver. It counts as in vivo. The note with it: CBD treated LMNA^G609G/G609G mice. The protocol: In the step of study the histology of mouse skin and liver, the mice were sacrificed by cervical dislocation under anesthesia by intraperitoneal (IP) injection of 100 mg/kg ketamine and 16 mg/kg xylazine in sterile water. Major organs, including skin, muscle, intestine, kidney, spleen, liver, lung, heart, aorta, were collected. Half of the tissues were snap-frozen in liquid nitrogen and stored at −80° C. for extraction of proteins and RNA. Another half of the tissues were fixed in 4% paraformaldehyde (PFA) in PBS and shook at 4° C. overnight. For paraffin wax sections, the fixed tissues were incubated in 70% ethanol and shook at 4° C. overnight. Followed by stepwise dehydration of tissues in 90%, 95%, 100%, and 100% ethanol for 1 hour each. Then the tissues were incubated in 50% xylene and 50% ethanol for 30 to 40 minutes and transferred to 100% xylene for 10 to 15 minutes. The tissues were then incubated in wax for 30 minutes and transferred to new wax for 3 times. Then the tissues were placed in the wax inside a vacuum chamber overnight. On the following day, the tissues were embedded into paraffin blocks and sectioned into slides with 6 μm in thickness. After the tissue sections were dried, they were incubated in xylene solution twice each for 5 minutes. […]

A further experiment has as its system LMNA^G609G/G609G MEFs. The experiment can be described thus: RNA sequencing of differentially expressed genes in MEFs. The note with it: 10 μM CBD, 4 days. It counts as cell-based, mouse. The protocol: Primary mouse embryonic fibroblasts (MEFs) at passage 3 were seeded and cultured in 10-cm dish and treated with CBD for 4 days. The cells were washed twice with ice-cold phosphate buffered saline (PBS), and 1 mL TRIzol was added. After incubation at room temperature for 5 minutes, the samples were collected into Eppendorf tubes. The supernatants were collected to Eppendorf tubes. 200 μl of chloroform was added to each sample, and the tubes were shaken vigorously by hand for 15 seconds. The samples were incubated at room temperature for 5 minutes and then centrifuged at 4° C. at 12000 rcf for 15 minutes. After centrifugation, the solution was separated into 3 layers. 450 μl of the clear top layer was collected, and 500 μl of isopropanol was added. […] The RNA quantitation was done using Nanodrop and Agilent 2100 Bioanalyzer. The RNA integrity was measured using Agilent 2100 Bioanalyzer. The RNA purity was measured using agarose gel electrophoresis and Agilent 2100 Bioanalyzer. […]
Illumina sequencing system was used for paired-end reads of read lengths PE150. […] The results were validated by quantitative polymerase chain reaction (qPCR). […] The concentration of RNA was measured by nanodrop. […] Then the samples were ready for qPCR. […] The delta-delta-ct value was calculated by the qPCR machine based on the signal of target genes normalized with housekeeping genes.

Experiment [3] concerns p21, BCL-w, BCL-xL, MCL-1, TRIB3, p-akt in MSCs. The experiment can be described thus: Western blotting in irradiated and non-irradiated MSCs. The experiment is classed as cell-based, human. The note with it: 6-hour 10 μM CBD. The protocol:
FIG. 12a-b illustrates the results of senolytic effect of CBD in mesenchymal stem cells (MSCs) upon irradiation induced senescence.
The relative cell viability was calculated by normalizing each sample to non-irradiated control sample. […] As CBD selectively killed senescent MSCs while keeping proliferating MSCs unharmed, it was discovered to be a novel senolytic. Referring to FIG. 12b, Western blotting was carried to investigate the mechanism behind CBD's senolytic effect. […] While as proliferating and senescent MSCs responded differently in phosphorylated akt level.
(A western blot detects proteins with antibodies after separation by electrophoresis.)

In the case of `C=C(C)[C@@H]1CCC(C)=C[C@H]1c1c(O)cc(CCCCC)cc1O` [CBD, Cannabidiol], the number of colonies result in experiment [1] is “higher number of colonies”. Further, in experiment [2], the “increase of senescent cells in liver” value is reported as “rescued”. In the experiment on LMNA^G609G/G609G MEFs, the “differentially expressed genes restored to normal levels” value is reported as 1066 out of 1363 and the “share of differentially expressed genes restored to normal levels” value is given as 78%. Besides, in experiment [3] (irradiated MSCs), the BCL-w level entry is “downregulated”, the BCL-xL level result was “downregulated”, the MCL-1 level result is “downregulated” and the p21 level result is reported as “significantly downregulated”. In addition, the “TRIB3 expression level (downregulated in senescent MSCs)” value in experiment [3] (irradiated senescent MSCs) is reported as “rescued”. Also, the p-akt level result in experiment [3] (non-irradiated MSCs) is recorded as “significantly upregulated”.
